# From PubChem BioAssay (NCI)
#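 These data come from cells grown in 96-well plates and exposed to compound for 48 hours at five concentrations. GI50 is the concentration that inhibits growth by half. TGI: total growth inhibition.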
# Key:
# Assay in all cases: DTP human tumour cell line panel, 48 h
# UO-31 renal = test system: UO-31 renal
# NCI-H226 lung = test system: NCI-H226 lung
# NCI-H522 lung = test system: NCI-H522 lung
# NCI/ADR-RES ovarian = test system: NCI/ADR-RES ovarian
# SK-OV-3 ovarian = test system: SK-OV-3 ovarian
# EKVX NSCLC = test system: EKVX NSCLC
# SN12C renal = test system: SN12C renal
# RXF 393 renal = test system: RXF 393 renal
# SF-268 CNS = test system: SF-268 CNS
# TK-10 renal = test system: TK-10 renal
# HS 578T breast = test system: HS 578T breast
# HOP-92 NSCLC = test system: HOP-92 NSCLC
# OVCAR-3 ovarian = test system: OVCAR-3 ovarian
# SW-620 colon = test system: SW-620 colon
# CAKI-1 renal = test system: CAKI-1 renal
# M14 melanoma = test system: M14 melanoma
# HCC-2998 colon = test system: HCC-2998 colon
# MOLT-4 leukemia = test system: MOLT-4 leukemia
# OVCAR-4 ovarian = test system: OVCAR-4 ovarian
# OVCAR-5 ovarian = test system: OVCAR-5 ovarian
# IGROV1 ovarian = test system: IGROV1 ovarian
# MDA-MB-435 = test system: MDA-MB-435
# A549 NSCLC = test system: A549 NSCLC
# K-562 leukemia = test system: K-562 leukemia
# SF-295 CNS = test system: SF-295 CNS
# MDA-MB-231 breast = test system: MDA-MB-231 breast
# CCRF-CEM leukemia = test system: CCRF-CEM leukemia
# MDA-MB-468 breast = test system: MDA-MB-468 breast
# HL-60(TB) leukemia = test system: HL-60(TB) leukemia
# HCT-15 colon = test system: HCT-15 colon
compound,measurement,setting,value
COc1csc(/C=N/NC(=O)c2[nH]c3ccc(Br)cc3c2-c2ccccc2)c1,TGI,UO-31 renal,> 100000 nM
same,GI50,NCI-H226 lung,315 nM
same,TGI,NCI-H226 lung,2160 nM
same,GI50,NCI-H522 lung,< 13.8 nM
same,TGI,NCI-H522 lung,41.3 nM
same,GI50,NCI/ADR-RES ovarian,23.8 nM
same,TGI,NCI/ADR-RES ovarian,57.4 nM
same,GI50,SK-OV-3 ovarian,51.9 nM
same,TGI,SK-OV-3 ovarian,15500 nM
same,GI50,EKVX NSCLC,86.3 nM
same,TGI,EKVX NSCLC,> 100000 nM
same,GI50,SN12C renal,38.7 nM
same,TGI,SN12C renal,9100 nM
same,GI50,RXF 393 renal,49.6 nM
same,TGI,RXF 393 renal,906 nM
same,GI50,SF-268 CNS,48.8 nM
same,TGI,SF-268 CNS,> 54200 nM
same,GI50,TK-10 renal,13200 nM
same,TGI,TK-10 renal,43600 nM
same,GI50,HS 578T breast,34.6 nM
same,TGI,HS 578T breast,22700 nM
same,GI50,HOP-92 NSCLC,920 nM
same,TGI,HOP-92 NSCLC,51200 nM
same,GI50,OVCAR-3 ovarian,32.5 nM
same,TGI,OVCAR-3 ovarian,720 nM
same,GI50,SW-620 colon,42.4 nM
same,TGI,SW-620 colon,> 100000 nM
same,GI50,CAKI-1 renal,111 nM
same,TGI,CAKI-1 renal,34600 nM
same,GI50,M14 melanoma,29.2 nM
same,TGI,M14 melanoma,22500 nM
same,GI50,HCC-2998 colon,89.4 nM
same,TGI,HCC-2998 colon,17300 nM
same,GI50,MOLT-4 leukemia,46.3 nM
same,TGI,MOLT-4 leukemia,> 37400 nM
same,GI50,OVCAR-4 ovarian,5420 nM
same,TGI,OVCAR-4 ovarian,> 100000 nM
same,GI50,OVCAR-5 ovarian,47.5 nM
same,TGI,OVCAR-5 ovarian,53200 nM
same,GI50,IGROV1 ovarian,77.8 nM
same,TGI,IGROV1 ovarian,17800 nM
same,GI50,MDA-MB-435,27.2 nM
same,TGI,MDA-MB-435,98.5 nM
same,GI50,A549 NSCLC,39.3 nM
same,TGI,A549 NSCLC,22000 nM
same,GI50,K-562 leukemia,30.5 nM
same,TGI,K-562 leukemia,13100 nM
same,GI50,SF-295 CNS,30.3 nM
same,TGI,SF-295 CNS,6480 nM
same,GI50,MDA-MB-231 breast,26.4 nM
same,TGI,MDA-MB-231 breast,69.3 nM
same,GI50,CCRF-CEM leukemia,29.9 nM
same,TGI,CCRF-CEM leukemia,1020 nM
same,GI50,MDA-MB-468 breast,23.2 nM
same,TGI,MDA-MB-468 breast,65.1 nM
same,GI50,HL-60(TB) leukemia,30.2 nM
same,TGI,HL-60(TB) leukemia,180 nM
same,GI50,HCT-15 colon,33.2 nM
same,TGI,HCT-15 colon,14800 nM
